Measurements from US20100029654A1, “CARDIOVASCULAR COMPOSITIONS AND USE OF THE SAME FOR THE TREATMENT OF ALZHEIMER'S DISEASE” (MOUNT SINAI SCHOOL OF MEDICINE, priority 2006, published 2010).
Structures can show the parent of a compound that is named as a salt. Where two headings read alike, the source gives them in different places.

Columns and labels:
[1] = system: primary cortico-hippocampal neuron cultures
Aβ1-42 [2] = assay: Aβ1-42 content in conditioned medium of primary cortico-hippocampal neuron cultures from Tg2576 mice (ELISA; primary and secondary dose-response screening); format: cell-based, mouse; details: for Ab1-42 (% of ctl) / activity at 100 µM: drug 100 μM; for reducing Aβ1-42: <85% of ctl; for activity at 100 µM: Mus musculus, Neuron, 24 h, read-out: Ab1-42 (% of ctl)
Procedure, shortened: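 This screen tested cardiovascular drugs for Aβ-lowering in Tg2576 embryonic cortico-hippocampal neuron cultures plated at 1.0×10^5 cells per well in poly-D-lysine-coated 96-well plates with Neurobasal/B27 medium. Drugs at 100 μM were added directly to the medium in duplicate, with 1% DMSO alone as the control. Conditioned medium was then collected, and its Aβ1-42 level was quantified with BioSource ELISA kits.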

Aβ1-40 = Aβ1-40 content in conditioned medium of primary cortico-hippocampal neuron cultures from Tg2576 mice (ELISA; primary and secondary dose-response screening); format: cell-based, mouse; details: for activity at 100 µM / EC50: Mus musculus; for activity at 100 µM: 24 h, read-out: Ab1-40 (% of ctl)
Procedure, shortened: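 Primary cortico-hippocampal neurons from embryonic Tg2576 mice were plated at 1.0×10^5 cells per well on poly-D-lysine-coated 96-well plates in Neurobasal with 2% B27, 0.5 mM L-glutamine and 1% penicillin-streptomycin. Cultures received drug in 1% DMSO, and Aβ1-40 in the conditioned medium was measured by BioSource ELISA 24 hours after treatment, relative to vehicle controls.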

[3] = system: primary cortico-hippocampal neuron cultures; remark: listed apart in the source
Method: (§3) For in vitro treatments drugs available from “The Spectrum Collection” in stocks of 10 mM in DMSO were applied directly to cultures to the desired concentrations (final 1% DMSO); control primary neuron cultures from Tg2576 embryos were treated with vehicle resulting in a final 1% DMSO.
(§4) Cell viability was assessed using a commercial available LDH assay kit according to the manufacture's instruction (Promega).

Aβ1-42 [4] = assay: Aβ1-42 content in conditioned medium of primary cortico-hippocampal neuron cultures from Tg2576 mice (ELISA; primary and secondary dose-response screening); format: cell-based, mouse; details: for activity at 100 µM / EC50: Mus musculus; for activity at 100 µM: 24 h, read-out: Ab1-42 (% of ctl)
[5] = system: primary cortico-hippocampal neuron cultures; assay: lactate dehydrogenase (LDH) activity assay in parallel neuron cultures
Method: as §3, §4

Tg2576 mice [6] = assay: tolerability: body weight, fluid consumption, glucose tolerance; details: Tg2576, short-term dosing
Aβ1-42 and Aβ1-40 = Aβ1-42 and Aβ1-40 content in peripheral blood (plasma, serum) by ELISA; format: in vivo, mouse
Method: (§1) FIG. 7. […] Bar graphs represent group mean±SEM, n=3 mice per group. 2-tailed t-test: *P<0.05.
(§2) Assessment of AD-type amyloid neuropathology in Tg2576 mice. For quantitative assessment of Aβ peptide in the brain, frozen pulverized tissue was homogenized in 5.0 M guanidine buffer, diluted (1:10) in phosphate-buffered saline containing 0.05% (v/v) Tween-20 and 1 mM Pefabloc protease inhibitors (Roche Biochemicals, Indianapolis, Ind.), and centrifuged for 20 min at 4° C. […] Serum Aβ content was analyzed using the same ELISA Kit, following manufacturer instructions.

[7] = system: primary cortico-hippocampal neuron cultures; assay: MTT in primary screening
Tg2576 mice [8] = assay: blood pressure (systolic, diastolic, MAP) by tail-cuff; format: in vivo, mouse
Method: FIG. 1 Tg2576 mice are characterized by normal blood pressure under basal conditions. Baseline measurements of systolic, diastolic blood pressure, and mean arteriole blood pressure (MAP) in ˜11 month old female Tg2576 mice. Strain-, age-, gender-matched WT mice were measured using a commercial blood pressure analysis system designed specifically for small rodents (Hatteras Instruments, NC). Following manufacturer's instruction, mice were temporarily immobilized in a restraining chamber and an inflated tail-cuff wrapped around the tail was used to measure the systolic pressure, diastolic pressure, and MAP. Each blood pressure determination was calculated as the mean of 10 individual measurements per animal (n=6-10 group).
FIG. 6A-C show body weight of mice in response to ˜3 weeks of treatment. […] FIG. 6D-F show the assessment of systolic, diastolic, and MAP blood pressure in Tg2576 mice in response to drug doses below or within the range of those prescribed in hypertension. Blood pressure measurements were conducted using a commercial blood pressure analysis system designed specifically for small rodents (Hatteras Instruments, NC). Following manufacturer's instruction, mice were temporarily immobilized in a restraining chamber and an inflated tail-cuff wrapped around the tail was used to measure pressures. Each blood pressure determination was calculated as the mean of 10 individual measurements per animal. In A-F, values represent mean±SEM values, n=3-5 mice per group. 2-tailed t-test: *P<0.05.
Assessment of blood pressure and glucose utilization. Mouse blood pressure was routinely recorded using a commercial blood pressure analysis system designed specifically for small rodents (Hatteras Instruments, NC). […] Briefly, mice were given a single dose of glucose post-prandially (i.p. 2 g/kg body weight). Blood was collected from the tail-vein periodically over a 2-hour period. Blood glycemic content was assessed using the OneTouch LifeScan System, (LifeScan, Milpitas, Calif.) following the manufacturer's instruction.

Aβ1-42 [9] = details: Tg2576, short-term dosing, subclinical or clinical concentrations
Method: Cognitive behavioral function was assessed using the Morris water maze (MWM). After completion of the MWM test, blood pressure measurements were quantified as describe in FIG. 1 legends. Following MWM testing and blood pressure assessment, mice were sacrificed for neuropathological assessment. […] C, (inset), total immunoreactive APP content normalized to β-actin signal. In C-D, bar graphs represent group mean±SEM, n=6-10 mice per group.
as §1, §2

[10] = Primary Screening, table sorted by Aβ1-40
[11] = primary screening, Tg2576 neuron cultures, table sorted by Aβ1-42
[12] = Primary Screening, drug 100 μM, table sorted by Aβ1-40
[13] = primary screening, drug 100 μM, Tg2576 neuron cultures, table sorted by Aβ1-42
[14] = primary screening, table sorted by Aβ1-42

Compound: Veratrine Sulfate
- MTT (% of ctl) [1]: 84.4 % of ctl
- Ab1-42 (% of ctl) (Aβ1-42 [2]; [10]): 87.1 % of ctl
- Ab1-42 (% of ctl) (Aβ1-42 [2]; [11]): 87.1 % of ctl
- Ab1-40 (% of ctl) (Aβ1-40; [12]): 58.5 % of ctl
- reduced Aβ1-40 (Aβ1-40; primary screening, <85% of ctl): reduced Aβ1-40
- Ab1-40 (% of ctl) (Aβ1-40; [13]): 58.5 % of ctl
- LDH (% of ctl) [3]: 124.4 % of ctl

Compound: CC(Cc1ccc(O)cc1)NCC(O)c1cc(O)cc(O)c1 (stereo not drawn) [Fenoterol Hydrobromide]
- activity at 100 µM (Aβ1-42 [4]; [13]): 78.8%
- MTT (% of ctl) ([1]; Tg2576, mouse): 93.9 % of ctl
- Ab1-42 (% of ctl) (Aβ1-42 [2]; [10]): 78.8 % of ctl
- reducing Aβ1-42 (Aβ1-42 [2]; primary screening): useful in reducing Aβ1-42
- activity at 100 µM (Aβ1-40; [13]): 89.3%
- Ab1-40 (% of ctl) (Aβ1-40; [12]): 89.3 % of ctl
- LDH (% of ctl) ([3]; Tg2576, mouse): 104.3 % of ctl

Compound: COc1ccc(Cc2nccc3cc(OC)c(OC)cc23)cc1OC [Papaverine Hydrochloride]
- LDH (% of ctl) [5, 10]: 118.4 % of ctl
- LDH at E-5M % of change ([5]; drug at E-5M): −8.9%
- LDH (% of ctl) [5, 14]: 118.4 % of ctl
- activity at 100 µM (Aβ1-42 [4]; [13]): 30.1%
- EC50 (Aβ1-42 [4]; Neuron, secondary dose-response screening 0.01-100 μM, 24 hours, read-out: EC50 (molar) Aβ1-42): 1.91e-05 M
- MTT (% of ctl) ([1]; Tg2576, mouse, 100 µM): 92.2 % of ctl
- Ab1-42 (% of ctl) (Aβ1-42 [2]; [10]): 30.1 % of ctl
- reducing Aβ1-42 (Aβ1-42 [2]; primary screening): useful in reducing Aβ1-42
- activity at 100 µM (Aβ1-40; [13]): 15.3%
- EC50 (Aβ1-40; Neuron, secondary dose-response screening 0.01-100 μM, 24 hours, read-out: EC50 (molar) Aβ1-40): 1.72e-05 M
- Ab1-40 (% of ctl) (Aβ1-40; [12]): 15.3 % of ctl
- reduced Aβ1-40 (Aβ1-40; primary screening, <85% of ctl): reduced Aβ1-40

Compound: CC(=O)[O-].CC(=O)[O-].[Cd+2] [Cadmium Acetate]
- Ab1-42 (% of ctl) (Aβ1-42 [4]): 3.8 % of ctl
- reducing Aβ1-42 (Aβ1-42 [4]): useful in reducing Aβ1-42
- MTT (% of ctl) [1]: 29.1 % of ctl
- Ab1-40 (% of ctl) (Aβ1-40): 29.5 % of ctl
- reduced Aβ1-40 (Aβ1-40): reduced Aβ1-40
- LDH (% of ctl) [3]: 889.8 % of ctl

Compound: Cl.NCCc1ccc(O)c(O)c1 [Dopamine Hydrochloride]
- reducing Aβ1-42 (Aβ1-42 [4]): useful in reducing Aβ1-42
- activity at 100 µM (Aβ1-42 [4]; Neuron): 78.3%
- MTT (% of ctl) ([1]; Tg2576, mouse): 95.7 % of ctl
- reduced Aβ1-40 (Aβ1-40): reduced Aβ1-40
- activity at 100 µM (Aβ1-40; Neuron): 85%
- LDH (% of ctl) ([3]; Tg2576, mouse): 559.5 % of ctl

Compound: COc1cccc(OC)c1OCCNCC1COc2ccccc2O1.Cl (stereo not drawn) [2-(2,6-Dimethoxyphenoxyethyl) Aminomethyl-1,4-Benzodioxane Hydrochloride]
- Ab1-42 (% of ctl) (Aβ1-42 [4]): 94.7 % of ctl
- MTT (% of ctl) [1]: 95.5 % of ctl
- Ab1-40 (% of ctl) (Aβ1-40): 82.6 % of ctl
- reduced Aβ1-40 (Aβ1-40): reduced Aβ1-40
- LDH (% of ctl) [3]: 103.9 % of ctl

Compound: COC(=O)C1=C(C)NC(C)=C(C(=O)OCCN(C)Cc2ccccc2)C1c1cccc([N+](=O)[O-])c1 (stereo not drawn) [Nicardipine Hydrochloride]
- fluid intake (Tg2576 mice [6]): did not significantly influence the amount of fluid intake
- plasma Aβ1-42 levels (and Aβ1-40) (Aβ1-42 and Aβ1-40; Tg2576, doses ~3 fold lower than minimal hypertension dose): prevented plasma accumulation of Aβ1-42 levels
- plasma Aβ1-42 (and Aβ1-40) (Aβ1-42 and Aβ1-40; Tg2576, within the dosage range prescribed for hypertension): lowering responses were found
- LDH (% of ctl) [5, 10]: 104.2 % of ctl
- LDH (at 5F-5 M) ([5]; Table IV): no change
- LDH (% of ctl) [5, 14]: 104.2 % of ctl
- EC50 (Aβ1-42 [4]; Neuron, Table IV, dose-response 0.01-100 μM, read-out: EC50 (M): Ab-lowering activity): 0.000119 M
- MTT (% of ctl) [7, 10]: 52.4 % of ctl
- MTT (% of ctl) [7, 14]: 52.4 % of ctl
- systolic, diastolic, MAP blood pressure (Tg2576 mice [8]; Tg2576, 3 weeks, doses within the range used for hypertension): decreased systolic, diastolic, and MAP blood pressure
- systolic, diastolic, MAP blood pressure (Tg2576 mice [8]; Tg2576, 3 weeks, doses ~3 fold below the minimal hypertension dose): did not significantly influence either systolic, diastolic or MAP blood pressure
- systolic, diastolic, MAP blood pressure (Tg2576 mice [8]; Tg2576, any dose 3-18 mg/kg/day): No detectable changes
- activity at 100 µM (Aβ1-42 [2]; [10]): 27.6%
- activity at 100 µM (Aβ1-42 [2]; [11]): 27.6%
- reducing Aβ1-42 (Aβ1-42 [2]; primary screening): useful in reducing Aβ1-42
- activity at 100 µM (Aβ1-40; Neuron, Primary Screening, drug 100 μM, table sorted by Aβ1-40): 10.7%
- activity at 100 µM (Aβ1-40; Neuron, primary screening, drug 100 μM, Tg2576 neuron cultures, table sorted by Aβ1-42): 10.7%
- EC50 (Aβ1-40; Neuron, Table IV, dose-response 0.01-100 μM, read-out: EC50 (M): Ab-lowering activity Abeta1-40): 3.64e-05 M
- reduced Aβ1-40 (Aβ1-40; primary screening, <85% of ctl): reduced Aβ1-40
- steady state levels of Aβ1-42 in hippocampal formation or cerebral cortex (Aβ1-42 [9]): significantly reduced steady state levels of Aβ1-42
